According to patent US12421240B2, “Hydropyrazino[1,2-d][1,4]diazepine compounds for the treatment of autoimmune disease” (Hoffmann-La Roche Inc., priority 2019, dated 2025):
pIC50: −log10 of the molar value.

Target: T1, hERG channel (Homo sapiens, UniProt Q12809)
T1 construct: expressed in transfected cells
Assay: hERG channel inhibition assay (patch-clamp, CHO hERG cells)
Assay type: cell-based
Conditions: whole-cell patch-clamp; for IC20: human, CHO cells stably expressing hERG
Experimental: hERG Channel Inhibition Assay
The hERG K^+ channels were cloned in humans and stably expressed in a CHO (Chinese hamster ovary) cell line. CHOhERG cells were used for patch-clamp (voltage-clamp, whole-cell) experiments. Cells were stimulated by a voltage pattern to activate hERG channels and conduct IKhERG currents (rapid delayed outward rectifier potassium current of the hERG channel). After the cells were stabilized for a few minutes, the amplitude and kinetics of IKhERG were recorded at a stimulation frequency of 0.1 Hz (6 bpm). Thereafter, the test compound was added to the preparation at increasing concentrations. For each concentration, an attempt was made to reach a steady-state effect, usually, this was achieved within 3-10 min at which time the next highest concentration was applied. The amplitude and kinetics of IKhERG are recorded in each concentration of the drug which were compared to the control values (taken as 100%). (references: Redfern W S, Carlsson L, Davis A S, Lynch W G, MacKenzie I, Palethorpe S, Siegl P K, Strang I, Sullivan A T, Wallis R, Camm A J, Hammond T G. 2003; Relationships between preclinical cardiac electrophysiology, clinical QT interval prolongation and torsade de pointes for a broad range of drugs: evidence for a provisional safety margin in drug development. Cardiovasc. Res. 58:32-45, Sanguinetti M C, Tristani-Firouzi M. 2006; hERG potassium channels and cardiac arrhythmia. Nature 440:463-469, Webster R, Leishman D, Walker D. 2002; Towards a drug concentration effect relationship for QT prolongation and torsades de pointes. Curr. Opin. Drug Discov. Devel. 5:116-26).

T1 sequence (Q12809 whole entry): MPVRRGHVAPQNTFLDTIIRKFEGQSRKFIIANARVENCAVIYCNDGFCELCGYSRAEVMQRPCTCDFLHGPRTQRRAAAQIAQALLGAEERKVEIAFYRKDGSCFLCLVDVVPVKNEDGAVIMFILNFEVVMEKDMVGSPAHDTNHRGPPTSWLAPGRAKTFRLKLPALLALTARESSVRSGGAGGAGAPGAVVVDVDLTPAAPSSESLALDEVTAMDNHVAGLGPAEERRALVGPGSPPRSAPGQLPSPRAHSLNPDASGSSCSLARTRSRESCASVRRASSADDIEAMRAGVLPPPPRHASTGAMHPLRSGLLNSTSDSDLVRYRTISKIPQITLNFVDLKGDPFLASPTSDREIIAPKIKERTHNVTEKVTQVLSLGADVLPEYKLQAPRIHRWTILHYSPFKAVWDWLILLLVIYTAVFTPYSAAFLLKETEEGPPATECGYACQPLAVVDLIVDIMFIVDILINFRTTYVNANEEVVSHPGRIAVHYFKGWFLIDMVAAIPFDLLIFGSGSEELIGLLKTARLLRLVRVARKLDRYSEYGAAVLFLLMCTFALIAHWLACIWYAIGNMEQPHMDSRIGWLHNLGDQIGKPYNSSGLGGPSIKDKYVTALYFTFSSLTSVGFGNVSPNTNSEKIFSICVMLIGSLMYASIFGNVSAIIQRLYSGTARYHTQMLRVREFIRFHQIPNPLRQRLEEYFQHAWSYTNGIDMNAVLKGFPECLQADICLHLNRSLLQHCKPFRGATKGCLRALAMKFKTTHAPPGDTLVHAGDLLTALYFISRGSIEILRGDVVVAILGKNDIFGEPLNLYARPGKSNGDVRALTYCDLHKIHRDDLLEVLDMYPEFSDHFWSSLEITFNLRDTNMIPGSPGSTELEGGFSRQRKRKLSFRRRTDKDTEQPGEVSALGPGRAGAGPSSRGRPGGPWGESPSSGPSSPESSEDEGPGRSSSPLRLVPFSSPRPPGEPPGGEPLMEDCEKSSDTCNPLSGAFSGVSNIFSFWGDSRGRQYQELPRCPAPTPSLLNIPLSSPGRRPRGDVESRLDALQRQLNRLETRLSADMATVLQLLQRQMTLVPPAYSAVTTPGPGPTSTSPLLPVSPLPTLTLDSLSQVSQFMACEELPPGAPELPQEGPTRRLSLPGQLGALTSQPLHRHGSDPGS

Compound | IC20 [µM] | pIC50
C[C@@H]1CN(c2ccc(C#N)c3ncccc23)C[C@@H]2CCN(c3cc4c(cn3)CNCC4)CCN21 [Example 7, 5-[(4R,10aS)-4-methyl-8-(5,6,7,8-tetrahydro-2,7-naphthyridin-3-yl)-1,3,4,6,7,9,10,10a-octahydropyrazino[1,2-d][1,4]diazepin-2-yl]quinoline-8-carbonitrile] | > 10 | < 4.70
C[C@@H]1CN(c2ccc(C#N)c3ncccc23)C[C@@H]2CCN(Cc3cnc4c(c3)CNCC4)CCN21 [Example 10, 5-[(4R,10aS)-4-methyl-8-(5,6,7,8-tetrahydro-1,6-naphthyridin-3-ylmethyl)-1,3,4,6,7,9,10,10a-octahydropyrazino[1,2-d][1,4]diazepin-2-yl]quinoline-8-carbonitrile] | > 10 | < 4.70
C[C@@H]1CN(c2ccc(C#N)c3ncccc23)C[C@@H]2CCN(Cc3cnc(N4CCNCC4)cn3)CCN21 [Example 15, 5-[(4R,10aS)-4-methyl-8-[(5-piperazin-1-ylpyrazin-2-yl)methyl]-1,3,4,6,7,9,10,10a-octahydropyrazino[1,2-d][1,4]diazepin-2-yl]quinoline-8-carbonitrile] | > 10 | < 4.70
